# Test results taken from US6737383B1, “Herbicidal oxadiazolidines” (priority 1999, dated 2004).
# Assays:
# [1] = tested on: corn; assay: Test B pre/postemergence corn; type: in vivo, Zea mays
# Outline: (§1)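 Herbicidal effect was estimated by eye on a ten-point control scale after plants spent twelve to sixteen days in a greenhouse following soil or foliar treatment. Foliar sprays targeted plants at one to four leaves; all doses were formulated in a non-phytotoxic solvent with surfactant.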
# [2] = tested on: pigweed; assay: Test B pre/postemergence pigweed; type: in vivo, Amaranthus retroflexus
# Outline: as §1
# [3] = tested on: wild oat; assay: Test B pre/postemergence wild oat; type: in vivo, Avena fatua
# Outline: as §1
# [4] = tested on: surinam grass; assay: Test B pre/postemergence surinam grass; type: in vivo, Brachiaria decumbens
# Outline: as §1
# [5] = tested on: smallflower flatsedge; assay: Test B flood test smallflower flatsedge; type: in vivo, Cyperus difformis
# Outline: (§2)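 Plants were grown to the 2-leaf stage before treatment with test chemical, then held in a greenhouse for twelve to sixteen days. Injury was visually rated against untreated controls on a 0–10 scale, where 0 is no effect and 10 is complete control.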
# [6] = tested on: bamyardgrass; assay: Test B flood test barnyardgrass; type: in vivo, Echinochloa crus-galli
# Outline: as §2
# [7] = tested on: sugar beet; assay: Test B pre/postemergence sugar beet; type: in vivo, Beta vulgaris
# Outline: as §1
# [8] = tested on: purple nutsedge; assay: Test B pre/postemergence purple nutsedge; type: in vivo, Cyperus rotundus
# Outline: as §1
# [9] = tested on: rape; assay: Test B pre/postemergence rape; type: in vivo, Brassica napus
# Outline: as §1
# [10] = tested on: rice; assay: Test B flood test rice; type: in vivo, Oryza sativa
# Outline: as §2
# [11] = tested on: morningglory; assay: Test B pre/postemergence morningglory; type: in vivo, Ipomoea hederacea
# Outline: as §1
# [12] = tested on: crabgrass; assay: Test B pre/postemergence crabgrass; type: in vivo, Digitaria sanguinalis
# Outline: as §1
# [13] = tested on: cocklebur; assay: Test B pre/postemergence cocklebur; type: in vivo, Xanthium strumarium
# Outline: as §1
# [14] = tested on: soybean; assay: Test B pre/postemergence soybean; type: in vivo, Glycine max
# Outline: as §1
# [15] = tested on: giant foxtail; assay: Test B pre/postemergence giant foxtail; type: in vivo, Setaria faberii
# Outline: as §1
# [16] = tested on: duck salad; assay: Test B flood test duck salad; type: in vivo, Heteranthera limosa
# Outline: as §2
# [17] = Postemergence, Rate 62 g/ha, scale 0 to 10, 0 is no effect, 10 is complete control
# [18] = Postemergence, Rate 250 g/ha, scale 0 to 10, 0 no effect, 10 complete control
# [19] = Preemergence, Rate 62 g/ha, scale 0 to 10 (0 no effect, 10 complete control)
# [20] = Preemergence, Rate 125 g/ha, scale 0 to 10 (0 no effect, 10 complete control)
# [21] = Preemergence, Rate 250 g/ha, scale of 0 to 10 where 0 is no effect and 10 is complete control
# [22] = Preemergence, Rate 500 g/ha, scale 0 (no effect) to 10 (complete control)
# [23] = Rate 125 g/ha, Postemergence, scale 0 to 10, 0 no effect, 10 complete control
# [24] = Rate 500 g/ha, Postemergence, scale 0 to 10, 0 no effect, 10 complete control
# [25] = Rate 125 g/ha, Postemergence section (flood test species), scale 0 to 10, 0 no effect, 10 complete control
# [26] = Rate 500 g/ha, listed under Postemergence (flood test species), scale 0 to 10, 0 no effect, 10 complete control
# [27] = flood test, listed under Postemergence, Rate 250 g/ha, scale 0 to 10, 0 no effect, 10 complete control
smiles,measurement,setting,value
COc1cccc(C)c1-n1c(=O)on(C(=O)N(c2ccccc2)C(C)C)c1=O [Compound 73],Corn plant response rating,[1]; [17],0
same,Corn plant response rating,[1]; [18],0
same,Corn plant response rating,[1]; [19],0
same,"Plant response rating, Corn",[1]; [20],0
same,"Plant response rating, Corn",[1]; [21],0
same,Corn plant response rating,[1]; [22],0
same,Corn plant response rating,[1]; [23],0
same,Corn plant response rating,[1]; [24],0
same,Redroot pigweed plant response rating,[2]; [17],0
same,Redroot pigweed plant response rating,[2]; [18],0
same,Redroot pigweed plant response rating,[2]; [19],0
same,"Plant response rating, Redroot pigweed",[2]; [20],0
same,"Plant response rating, Redroot pigweed",[2]; [21],0
same,Redroot pigweed plant response rating,[2]; [22],0
same,Redroot pigweed plant response rating,[2]; [23],0
same,Redroot pigweed plant response rating,[2]; [24],0
same,Wild oats plant response rating,[3]; [17],0
same,Wild oats plant response rating,[3]; [18],2
same,Wild oats plant response rating,[3]; [19],0
same,"Plant response rating, Wild oats",[3]; [20],0
same,"Plant response rating, Wild oats",[3]; [21],0
same,Wild oats plant response rating,[3]; [22],0
same,Wild oats plant response rating,[3]; [23],0
same,Wild oats plant response rating,[3]; [24],6
same,B. signalgrass plant response rating,[4]; [17],0
same,B. signalgrass plant response rating,[4]; [18],0
same,B. signalgrass plant response rating,[4]; [19],0
same,"Plant response rating, B. signalgrass",[4]; [20],0
same,"Plant response rating, B. signalgrass",[4]; [21],0
same,B. signalgrass plant response rating,[4]; [22],0
same,B. signalgrass plant response rating,[4]; [23],0
same,B. signalgrass plant response rating,"[4]; Rate 500 g/ha, Postemergence, scale of 0 to 10 where 0 is no effect and 10 is complete control",3
same,S. Flatsedge plant response rating,[5]; [17],0
same,S. Flatsedge plant response rating,[5]; [25],0
same,S. Flatsedge plant response rating,[5]; [26],0
same,S. Flatsedge plant response rating,[5]; [27],0
same,Barnyardgrass plant response rating,[6]; [17],0
same,Barnyardgrass plant response rating,[6]; [25],0
same,Barnyardgrass plant response rating,[6]; [26],0
same,Barnyardgrass plant response rating,[6]; [27],0
same,Sugarbeets plant response rating,[7]; [17],0
same,Sugarbeets plant response rating,[7]; [18],0
same,Sugarbeets plant response rating,[7]; [19],0
same,"Plant response rating, Sugarbeets",[7]; [20],0
same,"Plant response rating, Sugarbeets",[7]; [21],0
same,Sugarbeets plant response rating,[7]; [22],0
same,Sugarbeets plant response rating,[7]; [23],0
same,Sugarbeets plant response rating,[7]; [24],0
same,Nutsedge plant response rating,[8]; [17],0
same,Nutsedge plant response rating,[8]; [18],0
same,Nutsedge plant response rating,[8]; [19],0
same,"Plant response rating, Nutsedge",[8]; [20],0
same,"Plant response rating, Nutsedge",[8]; [21],0
same,Nutsedge plant response rating,[8]; [22],0
same,Nutsedge plant response rating,[8]; [23],0
same,Nutsedge plant response rating,[8]; [24],0
same,Rape plant response rating,[9]; [17],0
same,Rape plant response rating,[9]; [18],0
same,Rape plant response rating,[9]; [19],0
same,"Plant response rating, Rape",[9]; [20],0
same,"Plant response rating, Rape",[9]; [21],0
same,Rape plant response rating,[9]; [22],0
same,Rape plant response rating,[9]; [23],0
same,Rice plant response rating,[10]; [17],0
same,Rice plant response rating,[10]; [25],0
same,Rice plant response rating,[10]; [26],0
same,Rice plant response rating,[10]; [27],0
same,Morningglory plant response rating,[11]; [17],3
same,Morningglory plant response rating,[11]; [18],4
same,Morningglory plant response rating,[11]; [19],0
same,"Plant response rating, Morningglory",[11]; [20],0
same,"Plant response rating, Morningglory",[11]; [21],0
same,Morningglory plant response rating,[11]; [22],0
same,Morningglory plant response rating,[11]; [23],3
same,Morningglory plant response rating,[11]; [24],4
same,Crabgrass plant response rating,[12]; [17],0
same,Crabgrass plant response rating,[12]; [18],2
same,Crabgrass plant response rating,[12]; [19],1
same,"Plant response rating, Crabgrass",[12]; [20],5
same,"Plant response rating, Crabgrass",[12]; [21],8
same,Crabgrass plant response rating,[12]; [22],9
same,Crabgrass plant response rating,[12]; [23],0
same,Crabgrass plant response rating,[12]; [24],6
same,Cocklebur plant response rating,[13]; [17],0
same,Cocklebur plant response rating,[13]; [18],0
same,Cocklebur plant response rating,[13]; [19],0
same,"Plant response rating, Cocklebur",[13]; [20],0
same,"Plant response rating, Cocklebur",[13]; [21],0
same,Cocklebur plant response rating,[13]; [22],0
same,Cocklebur plant response rating,[13]; [23],0
same,Cocklebur plant response rating,[13]; [24],2
same,Soybean plant response rating,[14]; [17],0
same,Soybean plant response rating,[14]; [18],3
same,Soybean plant response rating,[14]; [19],0
same,"Plant response rating, Soybean",[14]; [20],0
same,"Plant response rating, Soybean",[14]; [21],0
same,Soybean plant response rating,[14]; [22],0
same,Soybean plant response rating,[14]; [23],0
same,Soybean plant response rating,[14]; [24],3
same,Giant foxtail plant response rating,[15]; [17],0
same,Giant foxtail plant response rating,[15]; [18],2
same,Giant foxtail plant response rating,[15]; [19],2
same,"Plant response rating, Giant foxtail",[15]; [20],7
same,"Plant response rating, Giant foxtail",[15]; [21],9
same,Giant foxtail plant response rating,[15]; [22],10
same,Giant foxtail plant response rating,[15]; [23],0
same,Giant foxtail plant response rating,[15]; [24],4
same,Ducksalad plant response rating,[16]; [17],0
same,Ducksalad plant response rating,[16]; [25],0
same,Ducksalad plant response rating,[16]; [26],0
same,Ducksalad plant response rating,[16]; [27],0
